Results taken from patent US20240294499A1, “TARGETED PROTEIN DEGRADATION USING BIFUNCTIONAL COMPOUNDS THAT BIND UBIQUITIN LIGASE AND TARGET MCL-1 PROTEIN” (Captor Therapeutics S.A., priority 2021, published 2024).

Legend:
[1] = tested on: OPM-2 cells; assay: Cell viability assay (CellTiter-Glo), OPM-2; assay type: cell-based; settings: Homo sapiens, 24 hours incubation, 1% FBS, read-out: Average pIC50 by molecule OPM-2 (converted)
Source text: The effect of various compounds of the invention on the viability of OPM-2, MV-4-11 and ARH-77 cell lines was investigated, using the CTG protocol described below.
OPM-2 and MV-4-11 cell lines are derived from multiple myeloma and acute myeloid leukaemia, respectively. Both cell lines are described in the literature as MCL-1 dependent lines, as opposed to lymphoblast-like ARH-77 cell line, which is described as independent of MCL-1 (Tron A E et al. Nat Commun. 2018; 9: 5341; Caenepeel S et al. Cancer Discov. 2018 December; 8(12):1582-1597).
Cells (OPM-2, MV-4-11 or ARH-77) were seeded on […] in a growth medium with FBS reduced to 1%. Next, compound stocks were pre-diluted in DMSO and added directly to the cells growth medium (final DMSO concentration: 0.5%). Compound concentrations used in this assay: 1/3 dilutions starting at 30 uM (9 to 12 points).
After 24 hours of incubation, cell viability was evaluated using CellTiter-Glo Luminescent Cell Viability Assay (Promega, cat #G7572). Luminescence signal was measured using a CLARIOstar Plus Multi-Mode Microplate Reader (574-590 nm).
Results were normalized to DMSO control.

[2] = target: MCL-1 protein (Homo sapiens, UniProt Q07820); assay: OPM-2 cells: MCL-1 protein degradation, Simple Western; assay type: cell-based; parameters: endogenous in cells; host or cells: OPM-2; settings: OPM-2 cell line, 6 h treatment, 100 nM compound, vs DMSO
Source text: The effect of various compounds of the invention and the reference compounds on MCL-1protein degradation in the OPM-2 cell line was investigated, using the degradation assay protocol below.
OPM-2 cells were maintained in RPMI-1640 medium, supplemented with penicillin/streptomycin and 10% Fetal Bovine Serum (FBS). During the treatment, FBS concentration was reduced to 1%.
Compound stocks were pre-diluted in DMSO and added directly to the cells growth medium (final DMSO concentration: 0.5%).
OPM-2 cells were collected, centrifuged (250 rcf, 5 min), resuspended in a growth medium containing 1% FBS and counted. The cell suspension was then adjusted to 1×10^6 cell/ml using a growth medium containing 1% FBS. Afterwards, 0.5×10^6 cells were seeded on 24-well plates in 0.5 mL of medium per well. Immediately after seeding cells, compounds in appropriate concentrations were added to the cell culture medium.
Following the treatment with the compounds, cells were collected from the plates and suspended in a lysis buffer (2% SDS, 50 mM Tris, pH 8.0, 100 U/ml Pierce Universal Nuclease for Cell Lysis, cOmplete EDTA-free Protease Inhibitor Cocktail) and incubated on ice for 45 min.
The following steps, including sample loading, protein separation, immunoprobing or labelling, washes and detection analysis was performed using Jess from ProteinSimple, an automatic system for analyzing protein levels in cell lysates (12-230 kDa Jess or Wes separation module 8×25 capillaries, protein normalization assay, no. SM-PN01-1). The Protein of Interest was detected using MCL-1 (D35A5) Rabbit monoclonal antibody (Cell Signaling, #5453, LOT: 4). Antibody was diluted in a ratio of 1:100 in Antibody diluent.
[%] of protein reduction is calculated in comparison to the cells treated with DMSO, which stand for 0%.
The results for the 6 h treatment with 100 nM compounds are shown in Table 9, using the following labels: • <20% for 0-19% of MCL-1 protein reduction, • ≥20% for 20-39% of MCL-1 protein reduction, • ≥40% for 40-100% of MCL-1 protein reduction.

[3] = tested on: DMS 114 cells; assay: Cell viability assay (CellTiter-Glo), DMS 114; assay type: cell-based; settings: 72 hours incubation, 10% FBS
Source text: The effect of various compounds of the invention on the viability of DMS 114 cell line was investigated, using the CTG protocol described below.
DMS 114 cell line is derived from small-cell lung cancer, which is described in the literature as MCL-1 dependent lines [Yasuda Y et al. Cell Death & Disease 2020; 11: 177].
DMS 114 cells were detached with trypsin and then resuspended in growth medium containing 10% FBS and counted. Cell suspension was then adjusted to 5×10^4 cells/ml using growth medium containing 10% FBS. Afterwards, […] were seeded on 384-well plates (50 μl). Plates were then placed in the incubator overnight until treated. Next day, compounds were added using ECHO 555 liquid handler. Compound concentrations used in this assay: 1/3 dilutions starting at 30 uM (9 to 12 points).
After 72 hours of incubation, cell viability was evaluated using CellTiter-Glo Luminescent Cell Viability Assay (Promega, cat #G7572). Luminescence signal was measured using a CLARIOstar Plus Multi-Mode Microplate Reader (574-590 nm).

[4] = tested on: ARH-77 cells; assay: Cell viability assay (CellTiter-Glo), ARH-77; assay type: cell-based; settings: Homo sapiens, ARH-77, 24 hours incubation, 1% FBS, read-out: Average pIC50 by molecule ARH-77 (converted)
In short: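 Luminescent ATP readout (CellTiter-Glo) at 24 hours measured viability, expressed relative to DMSO-treated wells. Compound was added directly to the medium as a 9–12-point threefold series starting at 30 uM, at 0.5% final DMSO. The medium contained FBS reduced to 1%.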

[5] = target: [MCL-1]-[compound of formula (I)]-[CRBN/DDB1] complex (Homo sapiens, UniProt Q07820+Q96SW2); assay: HTRF ternary complex assay; assay type: binding; settings: ternary complex formation; read-out: HTRF ternary complex Average pEC50 by molecule (converted)
In short: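 hMcl-1 and CRBN (mix at 48 nM and 105.6 nM) with Streptavidin-Eu cryptate and anti-6×His-d2 in PPI Europium buffer with 2 mM DTT; compounds in dose-response, 0.5% DMSO. Incubated 180 min at 25° C, TR-FRET 665/620 read. Bell-shaped curve fitted by Gaussian; EC50 reported.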

[MCL-1]-[compound of formula (I)]-[CRBN/DDB1] complex, sequence (Q07820 whole entry): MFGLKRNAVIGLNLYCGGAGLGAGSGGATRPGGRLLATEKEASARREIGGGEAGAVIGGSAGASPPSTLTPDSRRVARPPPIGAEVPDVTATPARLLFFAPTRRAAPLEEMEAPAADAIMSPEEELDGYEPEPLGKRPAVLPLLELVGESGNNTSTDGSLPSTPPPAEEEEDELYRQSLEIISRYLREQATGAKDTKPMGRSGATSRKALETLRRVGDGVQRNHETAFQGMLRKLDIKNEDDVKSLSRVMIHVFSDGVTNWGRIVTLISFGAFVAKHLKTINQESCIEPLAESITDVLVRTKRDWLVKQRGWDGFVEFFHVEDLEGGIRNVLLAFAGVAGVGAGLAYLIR
[MCL-1]-[compound of formula (I)]-[CRBN/DDB1] complex, sequence (Q96SW2 whole entry): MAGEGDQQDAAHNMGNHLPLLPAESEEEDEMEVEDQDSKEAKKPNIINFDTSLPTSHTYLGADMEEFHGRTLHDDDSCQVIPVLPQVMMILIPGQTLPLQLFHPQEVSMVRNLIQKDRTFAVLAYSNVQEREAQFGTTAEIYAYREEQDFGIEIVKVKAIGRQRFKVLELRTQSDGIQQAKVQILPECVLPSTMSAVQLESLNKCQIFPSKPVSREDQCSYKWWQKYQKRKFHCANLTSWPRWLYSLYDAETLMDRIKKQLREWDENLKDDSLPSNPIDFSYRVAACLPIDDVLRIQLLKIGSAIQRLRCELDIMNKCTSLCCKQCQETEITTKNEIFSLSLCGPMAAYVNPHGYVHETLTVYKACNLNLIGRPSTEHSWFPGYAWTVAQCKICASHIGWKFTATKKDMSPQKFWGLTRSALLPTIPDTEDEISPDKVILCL
[MCL-1]-[compound of formula (I)]-[CRBN/DDB1] complex, sequence (Q16531 whole entry partner): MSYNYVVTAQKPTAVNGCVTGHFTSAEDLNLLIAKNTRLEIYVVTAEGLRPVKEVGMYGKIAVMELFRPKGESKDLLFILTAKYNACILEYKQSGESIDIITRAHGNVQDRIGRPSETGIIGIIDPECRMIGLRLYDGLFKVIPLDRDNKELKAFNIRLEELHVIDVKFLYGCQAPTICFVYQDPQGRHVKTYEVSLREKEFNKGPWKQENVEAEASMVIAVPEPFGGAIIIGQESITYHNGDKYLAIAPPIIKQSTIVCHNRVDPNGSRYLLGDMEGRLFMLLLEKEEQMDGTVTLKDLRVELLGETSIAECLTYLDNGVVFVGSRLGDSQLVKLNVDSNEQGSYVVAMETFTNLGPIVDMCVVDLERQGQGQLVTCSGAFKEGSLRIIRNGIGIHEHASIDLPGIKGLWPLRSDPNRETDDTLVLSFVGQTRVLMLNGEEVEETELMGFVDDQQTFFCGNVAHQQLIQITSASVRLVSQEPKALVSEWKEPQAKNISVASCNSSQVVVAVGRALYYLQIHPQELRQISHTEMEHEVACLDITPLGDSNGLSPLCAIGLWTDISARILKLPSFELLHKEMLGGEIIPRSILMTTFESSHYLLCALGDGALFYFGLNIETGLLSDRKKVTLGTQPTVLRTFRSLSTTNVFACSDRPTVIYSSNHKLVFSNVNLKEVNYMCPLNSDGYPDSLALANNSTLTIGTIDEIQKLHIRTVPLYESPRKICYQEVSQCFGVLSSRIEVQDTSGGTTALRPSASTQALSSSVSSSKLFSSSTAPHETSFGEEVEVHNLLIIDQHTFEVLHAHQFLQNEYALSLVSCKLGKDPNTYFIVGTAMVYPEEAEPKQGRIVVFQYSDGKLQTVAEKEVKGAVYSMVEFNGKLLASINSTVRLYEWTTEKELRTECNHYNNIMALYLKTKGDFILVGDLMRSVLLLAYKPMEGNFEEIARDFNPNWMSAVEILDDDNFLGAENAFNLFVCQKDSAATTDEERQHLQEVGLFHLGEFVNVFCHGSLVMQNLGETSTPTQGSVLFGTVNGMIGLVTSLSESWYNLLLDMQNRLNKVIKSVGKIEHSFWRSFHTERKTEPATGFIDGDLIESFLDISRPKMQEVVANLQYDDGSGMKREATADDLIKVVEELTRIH
MCL-1 protein, sequence (Q07820 whole entry): as the sequence (Q07820 whole entry) above

Row | SMILES | IC50 [1] | Simple Western, % of protein reduction [2] | IC50 [4] | EC50 [5] | other results
1 | Cc1nn(C)c(C)c1-c1c(F)ccc2c(CCCOc3cccc4cc(F)ccc34)c(C(=O)O)n(CCN3CCN(C(=O)COc4cccc5c4C(=O)N(C4CCC(=O)NC4=O)C5=O)CC3)c12 (stereo not shown) [Compound 215, 1-{2-[4-(2-{[2-(2,6-dioxopiperidin-3-yl)-1,3-dioxo-2,3-dihydro-1H-isoindol-4-yl]oxy}acetyl)piperazin-1-yl]ethyl}-6-fluoro-3-{3-[(6-fluoronaphthalen-1-yl)oxy]propyl}-7-(1,3,5-trimethyl-1H-pyrazol-4-yl)-1H-indole-2-carboxylic acid] | ≤ 1000 nM | ≥20% | – | – | –
2 | Cc1nn2c(c1-c1c(Cl)ccc3c(CCCOc4cccc5cc(F)ccc45)c(C(=O)O)n(CCN4CCN(C(=O)COc5cccc6c5CN(C5CCC(=O)NC5=O)C6=O)CC4)c13)COCC2 (stereo not shown) [Compound 346, 6-Chloro-1-(2-(4-(2-((2-(2,6-dioxopiperidin-3-yl)-1-oxoisoindolin-4-yl)oxy)acetyl)piperazin-1-yl)ethyl)-3-(3-((6-fluoronaphthalen-1-yl)oxy)propyl)-7-(2-methyl-6,7-dihydro-4H-pyrazolo[5,1-c][1,4]oxazin-3-yl)-1H-indole-2-carboxylic acid] | – | – | > 10000 nM | – | IC50 ([3]; Homo sapiens, DMS-114, 72 h, read-out: Average pIC50 by molecule DMS 114 (converted)): ≤ 3160 nM
3 | Cc1nn(C)c(C)c1-c1c(Cl)ccc2c(CCCOc3cccc4cc(F)ccc34)c(C(=O)O)n(CCN3CCN(C(=O)Cn4c(C)nc5c(C(=O)NC6CCC(=O)NC6=O)cccc54)CC3)c12 (stereo not shown) [Compound 268, 6-chloro-1-{2-[4-(2-{4-[(2,6-dioxopiperidin-3-yl)carbamoyl]-2-methyl-1H-1,3-benzodiazol-1-yl}acetyl)piperazin-1-yl]ethyl}-3-{3-[(6-fluoronaphthalen-1-yl)oxy]propyl}-7-(1,3,5-trimethyl-1H-pyrazol-4-yl)-1H-indole-2-carboxylic acid] | – | – | – | < 10 nM | –
4 | Cc1nn(C)c(C)c1-c1c(Cl)ccc2c(CCCOc3cccc4cc(F)ccc34)c(C(=O)O)n(CCN3CCN(C(=O)COc4cccc5c4CN(C4CCC(=O)NC4=O)C5=O)CC3)c12 (stereo not shown) [Compound 220, 6-chloro-1-{2-[4-(2-{[2-(2,6-dioxopiperidin-3-yl)-1-oxo-2,3-dihydro-1H-isoindol-4-yl]oxy}acetyl)piperazin-1-yl]ethyl}-3-{3-[(6-fluoronaphthalen-1-yl)oxy]propyl}-7-(1,3,5-trimethyl-1H-pyrazol-4-yl)-1H-indole-2-carboxylic acid] | – | – | > 10000 nM | < 100 nM | Average pIC50 by molecule DMS 114 [3]: ≥6.5
5 | Cc1nn(C)c(C)c1-c1c(Cl)ccc2c(CCCOc3cccc4ccccc34)c(C(=O)O)n(CCN3CCN(C(=O)COc4cccc5c4C(=O)N(C4CCC(=O)NC4=O)C5=O)CC3)c12 (stereo not shown) [Compound 204, 6-chloro-1-(2-(4-(2-((2-(2,6-dioxopiperidin-3-yl)-1,3-dioxoisoindolin-4-yl)oxy)acetyl)piperazin-1-yl)ethyl)-3-(3-(naphthalen-1-yloxy)propyl)-7-(1,3,5-trimethyl-1H-pyrazol-4-yl)-1H-indole-2-carboxylic acid] | ≤ 1000 nM | ≥40% | – | – | –
